For one experiment, the target named is USP28 (Homo sapiens (Human), UniProt Q96RU2). In words: Ubiquitin-Rhodamine 110 Assay for USP28 Activity. The experiment is classed as biochemical. As to the method: The assay was performed in a final volume of 20 μL in assay buffer containing 20 mM Tris-HCl (pH 8.0, (1M Tris-HCl, pH 8.0 solution; Corning 46-031-CM)), 2 mM CaCl2 (1M Calcium Chloride solution; Sigma #21114) 2 mM BME (2-Mercaptoethanol; Sigma 63689-25ML -F), 0.01% Prionex (0.22 μM filtered, Sigma #G-0411), and 0.01% Triton X-100. Stock compound solutions were stored at −20° C. as 10 mM in DMSO. Up to 1 month prior to the assay, 2 mM test compounds were pre-dispensed into assay plates (Black, low volume; Corning #3820) and frozen at −20° C. Prestamped assay plates were allowed to come to room temperature on the day of the assay. For the screen, 100 nL of 2 mM was pre-dispensed for a final screening concentration of 10 μM (DMSO(fc)=0.5%). […] Plates were incubated stacked for 90 minutes at room temperature before fluorescence was read on the Envision (Excitation at 485 nm and Emission at 535 nm; Perkin Elmer) or on the PheraSTAR (Excitation at 485 nm and Emission at 535 nm; BMG Labtech).
USP28, sequence (Q96RU2 whole entry): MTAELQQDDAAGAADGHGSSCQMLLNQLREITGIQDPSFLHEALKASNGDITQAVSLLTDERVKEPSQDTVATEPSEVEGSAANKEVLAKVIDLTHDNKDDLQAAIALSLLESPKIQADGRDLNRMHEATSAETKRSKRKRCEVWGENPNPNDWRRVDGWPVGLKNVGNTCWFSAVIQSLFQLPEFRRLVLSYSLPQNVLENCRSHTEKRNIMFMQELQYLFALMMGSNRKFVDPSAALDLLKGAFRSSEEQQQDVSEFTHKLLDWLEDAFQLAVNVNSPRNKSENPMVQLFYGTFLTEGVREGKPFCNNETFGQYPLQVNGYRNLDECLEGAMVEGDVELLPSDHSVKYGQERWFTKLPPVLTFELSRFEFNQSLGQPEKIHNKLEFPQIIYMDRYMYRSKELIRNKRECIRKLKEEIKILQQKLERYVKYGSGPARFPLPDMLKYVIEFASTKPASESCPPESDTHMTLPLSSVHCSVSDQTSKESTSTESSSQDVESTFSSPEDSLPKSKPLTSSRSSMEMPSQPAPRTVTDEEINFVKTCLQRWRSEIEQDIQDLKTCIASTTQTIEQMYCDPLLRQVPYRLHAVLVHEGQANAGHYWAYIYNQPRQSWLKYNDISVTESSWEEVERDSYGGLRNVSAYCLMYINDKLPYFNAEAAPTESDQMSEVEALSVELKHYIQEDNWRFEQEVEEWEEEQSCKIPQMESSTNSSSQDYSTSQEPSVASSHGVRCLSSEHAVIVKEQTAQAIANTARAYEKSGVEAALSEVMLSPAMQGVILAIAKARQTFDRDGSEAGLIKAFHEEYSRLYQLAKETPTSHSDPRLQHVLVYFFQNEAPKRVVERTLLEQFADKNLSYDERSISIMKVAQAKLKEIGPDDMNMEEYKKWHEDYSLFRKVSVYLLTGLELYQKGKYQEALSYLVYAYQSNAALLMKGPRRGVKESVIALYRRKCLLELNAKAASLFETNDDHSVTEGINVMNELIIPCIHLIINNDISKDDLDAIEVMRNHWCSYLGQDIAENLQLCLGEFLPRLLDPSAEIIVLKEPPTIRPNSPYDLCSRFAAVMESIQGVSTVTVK
For follow-up studies, the assay was performed in a final volume of 15 μL in assay buffer containing 20 mM Tris-HCl (pH 8.0, (1M Tris-HCl, pH 8.0 solution; Corning 46-031-CM)), 3 mM BME (2-Mercaptoethanol; Sigma 63689-25ML-F), 0.03% BGG (0.22 μM filtered, Sigma, G7516-25G), and 0.01% Triton X-100 (Sigma, T9284-10L). Nanoliter quantities of either an 8-point or 10-point, 3-fold serial dilution in DMSO was pre-dispensed into assay plates (Perkin Elmer, ProxiPlate-384 F Plus) for a final test concentration of either 25 μM to 11 nM or 25 μM to 1.3 nM, respectively. Enzyme USP28, construct USP28 (USP28-5(1-1077)-TEV-6*His; LifeSensors) concentration and incubation times were optimized for the maximal signal-to -background while maintaining initial velocity conditions at a fixed substrate concentration. The final concentration of the enzyme in the assay was 75 pM. […] 5 μL of 2× enzyme was added to assay plates (pre-stamped with compound) preincubated with USP28 for 30 minutes and then 5 μL of 2× Ub-Rh110 was added to assay plates. Plates were incubated stacked for 20 min at room temperature before 5 μL of stop solution was added (final concentration of 10 mM citric acid (Sigma, 251275-500G)). Fluorescence was read on the Envision (Excitation at 485 nm and Emission at 535 nm; Perkin Elmer) or on the PheraSTAR (Excitation at 485 nm and Emission at 535 nm; BMG Labtech).
(§1) For both the USP28 and USP25 assay formats, data were reported as percent inhibition compared with control wells based on the following equation: % inh=1-((FLU-AveLow)/(AveHigh−AveLow)) where FLU=measured Fluorescence, AveLow=average Fluorescence of no enzyme control (n=16), and AveHigh=average Fluorescence of DMSO control (n=16). IC50 values were determined by curve fitting of the standard 4 parameter logistic fitting algorithm included in the Activity Base software package: IDBS XE Designer Model205. Data is fitted using the Levenburg Marquardt algorithm.

The next experiment has as its target USP25 (Homo sapiens (Human), UniProt Q9UHP3). In words: Ubiquitin-Rhodamine 110 Assay for USP25 Activity. The class given is biochemical. How it is done: The assay was performed in a final volume of 9 μL in assay buffer containing 20 mM Tris-HCl (pH 8.0, (1M Tris-HC1, pH 8.0 solution; Corning 46-031-CM)), 3 mM BME (2-Mercaptoethanol; Sigma 63689-25ML-F), 0.03% BGG (0.22 μM filtered, Sigma, G7516-25G), and 0.01% Triton X-100 (Sigma, T9284-10L). Nanoliter quantities of 10-point, 3-fold serial dilution in DMSO was pre-dispensed into 1536 assay plates (Corning, #3724BC) for a final test concentration of 25 μM to 1.3 nM, top to lowest dose, respectively. Enzyme USP25, construct USP25-His6, (Boston Biochem E-546). Concentration and incubation times were optimized for the maximal signal-to-background while maintaining initial velocity conditions at a fixed substrate concentration. The final concentration of the enzyme in the assay was 75 pM. […] 3 μL of 2× enzyme was added to assay plates (pre-stamped with compound) preincubated with […] for 30 minutes and then 3 μL of 2× Ub-Rh110 was added to assay plates. Plates were incubated for 45 minutes at room temperature before addition of 3 μL of stop solution (final concentration of 10 mM citric acid (Sigma, 251275-500G)). Fluorescence was read on the Envision (Excitation at 485 nm and Emission at 535 nm; Perkin Elmer) or on the PheraSTAR (Excitation at 485 nm and Emission at 535 nm; BMG Labtech).
as §1

For orientation: IC50 means the concentration at which inhibition is half-maximal. Lower therefore signals greater potency.

USP25, sequence (Q9UHP3 whole entry): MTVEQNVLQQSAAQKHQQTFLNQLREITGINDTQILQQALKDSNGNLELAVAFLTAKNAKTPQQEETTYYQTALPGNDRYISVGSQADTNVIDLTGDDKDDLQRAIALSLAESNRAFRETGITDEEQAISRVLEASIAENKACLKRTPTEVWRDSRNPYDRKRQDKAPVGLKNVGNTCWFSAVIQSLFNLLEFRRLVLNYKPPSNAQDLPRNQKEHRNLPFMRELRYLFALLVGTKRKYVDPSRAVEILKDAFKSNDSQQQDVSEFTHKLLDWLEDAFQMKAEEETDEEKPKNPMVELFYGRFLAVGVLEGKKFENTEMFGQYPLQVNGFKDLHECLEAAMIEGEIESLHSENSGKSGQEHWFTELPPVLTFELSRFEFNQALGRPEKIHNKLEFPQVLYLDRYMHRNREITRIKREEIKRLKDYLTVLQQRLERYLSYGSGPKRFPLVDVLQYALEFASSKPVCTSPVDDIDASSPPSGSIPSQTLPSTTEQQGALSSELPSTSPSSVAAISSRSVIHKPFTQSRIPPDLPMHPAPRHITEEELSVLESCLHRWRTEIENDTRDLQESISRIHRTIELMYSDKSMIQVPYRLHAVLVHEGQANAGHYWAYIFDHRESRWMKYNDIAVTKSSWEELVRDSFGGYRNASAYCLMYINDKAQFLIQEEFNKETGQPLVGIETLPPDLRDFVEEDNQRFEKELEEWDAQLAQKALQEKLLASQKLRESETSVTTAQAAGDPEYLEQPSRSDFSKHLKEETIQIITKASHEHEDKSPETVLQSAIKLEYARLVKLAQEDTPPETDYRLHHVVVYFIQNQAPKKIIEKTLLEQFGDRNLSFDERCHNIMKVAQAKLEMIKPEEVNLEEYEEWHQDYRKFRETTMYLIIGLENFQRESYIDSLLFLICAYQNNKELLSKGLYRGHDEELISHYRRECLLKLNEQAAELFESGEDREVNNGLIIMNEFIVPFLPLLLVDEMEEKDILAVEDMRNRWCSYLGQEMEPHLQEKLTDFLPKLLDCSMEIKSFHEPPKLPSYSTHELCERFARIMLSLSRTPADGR

Molecule `Cc1ccc2c(N)c(C(=O)NCCc3ccc(N4CC5CNCC(C4)O5)cc3)sc2n1` [Compound I-66] displayed an IC50 against USP28 of less than 0.2 µM.

Turning to `CN[C@H]1CN(c2cc(F)c(CCNC(=O)c3sc4nc(C)ccc4c3N)cc2F)C[C@H]1F` (single isomer, unassigned) [Example I-212], the IC50 against USP28 and on USP25 was 0.2 to 2 µM each time.

As for `Cc1ccc2c(N)c(C(=O)NC[C@H](C)c3cc(F)c(N4CCNCC4)cc3F)sc2n1` [Example I-208], the results for the IC50 against USP28 and against USP25 were 0.2 to 2 µM and 2 to 10 µM, respectively.

For the molecule `CCc1nc2sc(C(=O)NCCc3ccc(N4CCNCC4)cc3)c(N)c2cc1F` [Compound I-206], the IC50 on USP28 and against USP25 was less than 0.2 µM throughout.

Take `Cc1cc2c(N)c(C(=O)NCCc3ccc(N4CCNCC4)cc3)sc2nc1C` [Compound I-61]: the figures for the IC50 against USP28 and against USP25 were 0.2 to 2 µM and 2 to 10 µM, respectively.

`Cc1ccc2c(N)c(C(=O)NCCc3ccc(N4CCNCC4)c(-c4cnn(C5CCOCC5)c4)c3)sc2n1` [Example I-166]: the IC50 lay in the range of 2 to 10 µM at USP28 and 10 to 25 µM on USP25.

As for `Cc1nc2sc(C(=O)NCCc3ccc(N4CC5CCC(C4)N5)c(C#N)c3)c(N)c2cc1F` [Compound I-71], the IC50 on USP28 and at USP25 was 0.2 to 2 µM throughout.

For `Nc1c(C(=O)NCCc2ccc(N3CCNCC3)c(Cl)c2)sc2nc(C(F)F)ccc12` [Example I-179, 3-Amino-N-(3-chloro-4-(piperazin-1-yl)phenethyl)-6-(difluoromethyl)thieno[2,3-b]pyridine-2-carboxamide], the IC50 at USP28 and against USP25 was 2 to 10 µM each time.

As for `Cc1ccc2c(N)c(C(=O)NCCc3ccc(N4CCNCC4)c(-c4ccccn4)c3)sc2n1` [Example I-168, 3-Amino-6-methyl-N-(4-(piperazin-1-yl)-3-(pyridin-2-yl)phenethyl)thieno[2,3-b]pyridine-2-carboxamide], the figures for the IC50 against USP28 and against USP25 were 2 to 10 µM and 10 to 25 µM, respectively.

As for `Cc1ccc2c(N)c(C(=O)NCCc3ccc(N4CCNCC4)cc3C)sc2n1` [Example I-89], the IC50 was less than 0.2 µM against USP28 and 0.2 to 2 µM against USP25.

On to `Cc1ccc2c(N)c(C(=O)NCCc3ccc([C@@H]4CCNC4)cc3)sc2n1` (single isomer, unassigned) [Example I-181], for which the results for the IC50 at USP28 and on USP25 were less than 0.2 µM and 0.2 to 2 µM, respectively.

As to `Nc1c(C(=O)NCCc2ccc(N3CCNCC3)cc2)sc2ncc(C(F)F)cc12` [Compound I-27], the IC50 against USP28 was in the range of 2 to 10 µM; at USP25, 10 to 25 µM.

With `Cc1ccc2c(N)c(C(=O)NCCc3cc(F)c(N4CCNCC4)c(F)c3F)sc2n1` [Compound I-35], the IC50 at USP28 was less than 0.2 µM.

Molecule `Nc1c(C(=O)NCCc2ccc(N3CCNCC3)cc2)sc2nc(Cl)ccc12` [Compound I-57] had an IC50 on USP28 of 0.2 to 2 µM.

Turning to `Cc1cnc2sc(C(=O)NCCc3ccc(N4CCNCC4)c(Cl)c3)c(N)c2c1` [Compound I-32], on USP28, the IC50 fell in the range of 2 to 10 µM.

`Cc1ccc2c(N)c(C(=O)NCCc3ccc(N4CCNCC4)c(C(F)(F)F)c3)sc2n1` [Compound I-3] came in with an IC50 on USP28 of 0.2 to 2 µM.

Molecule `Cc1ccc2c(N)c(C(=O)NC[C@@H](C)c3cc(F)c(N4CCNCC4)cc3F)sc2n1` [Example I-207] displayed an IC50 on USP28 of 0.2 to 2 µM.

As for `Cc1nc2sc(C(=O)NCCc3ccc(N4CCNCC4)c(Cl)c3)c(N)c2cc1F` [Compound I-9], the IC50 against USP28 fell in the range of 0.2 to 2 µM.

The molecule `COc1ccc2c(N)c(C(=O)NCCc3cc(F)c(N4CCNCC4)cc3F)sc2n1` [Compound I-51] gave an IC50 on USP28 of less than 0.2 µM.

Regarding `Cc1ccc2c(N)c(C(=O)NCCc3ccc(N4CC[C@@H](N(C)C)C4)cc3)sc2n1` [Example I-117], the IC50 against USP28 lay within 0.2 to 2 µM.

As to `Cc1ccc2c(N)c(C(=O)NCCc3cc(F)c(N4CCNCC4)c(F)c3)sc2n1` [Compound I-4], the IC50 against USP28 is less than 0.2 µM.

Regarding `Cc1ccc2c(N)c(C(=O)NCCc3ccc(N4CCN(CCN5CCCC5)CC4)cc3)sc2n1` [Example I-119], the IC50 against USP28 lay in the range of 2 to 10 µM.

On USP28, `Cc1ccc2c(N)c(C(=O)NCCc3cc(F)c(N4CCN[C@H](C)C4)cc3F)sc2n1` [Example I-209, (R)-3-amino-N-(2,5-difluoro-4-(3-methylpiperazin-1-yl)phenethyl) -6-methylthieno[2,3-b]pyridine-2-carboxamide] yielded an IC50 of 10 to 25 µM.

In the case of `Cc1nc2sc(C(=O)NCCc3cc(F)c(N4CCNCC4)cc3F)c(N)c2cc1F` [Compound I-46], at USP28, the IC50 fell in the range of 0.2 to 2 µM.

Consider `Cc1ccc2c(N)c(C(=O)NCCc3cc(F)c(N4CCNCC4)c(Cl)c3)sc2n1` [Compound I-8], for which, on USP28, the IC50 is less than 0.2 µM.

As for `Nc1c(C(=O)NCCc2ccc(N3CCNCC3)cc2)sc2nc(C3CC3)ccc12` [Example I-114, 3-Amino-6-cyclopropyl-N-(4-(piperazin-1-yl)phenethyl)thieno[2,3-b]pyridine-2-carboxamide], the IC50 at USP28 was less than 0.2 µM.

At USP28, `Cc1ccc2c(N)c(C(=O)NCCc3ccc(N4CCn5cncc5C4)cc3)sc2n1` [Example I-120] gave an IC50 of less than 0.2 µM.

In the case of `Cc1ccc2c(N)c(C(=O)NCCc3cc(F)c(N4CC5CCC(C4)N5)c(F)c3)sc2n1` [Compound I-45], the IC50 on USP28 was less than 0.2 µM.

As to `Cc1ccc2c(N)c(C(=O)NCCc3cc(F)c(C4CCNCC4)cc3F)sc2n1` [Example I-113, 3-Amino-N-(2,5-difluoro-4-(piperidin-4-yl)phenethyl)-6-methylthieno[2,3-b]pyridine-2-carboxamide], the IC50 on USP28 was less than 0.2 µM.

As to `CNc1ccc2c(N)c(C(=O)NCCc3ccc(N4CCNCC4)cc3)sc2n1` [Example I-187], at USP28, the IC50 fell in the range of 0.2 to 2 µM.

For the molecule `Cc1ccc2c(N)c(C(=O)NCCc3ccc(-n4ncc5c4CNC5)c(F)c3)sc2n1` [Example I-80], the IC50 against USP28 lay within 2 to 10 µM.

`CN[C@H]1CCN(c2cc(F)c(CCNC(=O)c3sc4nc(C)ccc4c3N)cc2F)C1` [Compound I-50]: the IC50 against USP28 lay in the range of 0.2 to 2 µM.

On USP28, `CCc1nc2sc(C(=O)NCCc3cc(F)c(N4CCNCC4)cc3F)c(N)c2cc1F` [Compound I-55] showed an IC50 of less than 0.2 µM.

Molecule `Cc1ccc2c(N)c(C(=O)NCCc3ccc(N4CCNCC4)c(C)c3)sc2n1` [Example I-74, 3-Amino-6-methyl-N-(3-methyl-4-(piperazin-1-yl)phenethyl)thieno[2,3-b]pyridine-2-carboxamide] had an IC50 against USP28 of less than 0.2 µM.

For `CN[C@@H]1CCN(c2cc(F)c(CCNC(=O)c3sc4nc(C)ccc4c3N)cc2F)C1` [Compound I-49], the IC50 on USP28 is less than 0.2 µM.

`Cc1ccc2c(N)c(C(=O)NCCc3ccc(N4CC[C@H](N(C)C)C4)cc3)sc2n1` [Example I-118] displayed an IC50 against USP28 of 0.2 to 2 µM.

Turning to `Cc1ccc2c(N)c(C(=O)NC[C@H](C)c3ccc(N4CCNCC4)cc3)sc2n1` (single isomer, unassigned) [Example I-202], the half-maximal inhibitory concentration (IC50) against USP28 is 0.2 to 2 µM.

In turn, `Nc1c(C(=O)NCCc2ccc(N3CCNCC3)c(Cl)c2)sc2ncc(F)cc12` [Compound I-39] came in with an IC50 against USP28 of 2 to 10 µM.

The molecule `Cc1ccc2c(N)c(C(=O)NCCc3c(F)cc(N4CCNCC4)cc3F)sc2n1` [Compound I-42] came in with an IC50 at USP28 of 0.2 to 2 µM.

Source of the values: patent US10913753B2, “Thienopyridine carboxamides as ubiquitin-specific protease inhibitors” (FORMA Therapeutics, Inc., priority 2016, dated 2021).
